Test results taken from ChEMBL document CHEMBL1201862, “PubChem BioAssay data set” (2004).
Calls of active or inactive are those of the source.

Experiments:
Cytochrome P450 3A4 = Cytochrome P450 3A4 (Homo sapiens, UniProt P08684);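 also: CYP3A4 tested as one member of a cytochrome P450 panel screen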
[1] = biological target: Glucose-6-phosphate 1-dehydrogenase (Homo sapiens, UniProt P11413); experiment: inhibition of Homo sapiens G6PD, dose series – biochemical, fluorescence, selectivity assay for P. falciparum G6PD inhibitor project, dose response (AID 504792); type: functional
Glucose-6-phosphate 1-dehydrogenase, sequence (P11413 whole entry): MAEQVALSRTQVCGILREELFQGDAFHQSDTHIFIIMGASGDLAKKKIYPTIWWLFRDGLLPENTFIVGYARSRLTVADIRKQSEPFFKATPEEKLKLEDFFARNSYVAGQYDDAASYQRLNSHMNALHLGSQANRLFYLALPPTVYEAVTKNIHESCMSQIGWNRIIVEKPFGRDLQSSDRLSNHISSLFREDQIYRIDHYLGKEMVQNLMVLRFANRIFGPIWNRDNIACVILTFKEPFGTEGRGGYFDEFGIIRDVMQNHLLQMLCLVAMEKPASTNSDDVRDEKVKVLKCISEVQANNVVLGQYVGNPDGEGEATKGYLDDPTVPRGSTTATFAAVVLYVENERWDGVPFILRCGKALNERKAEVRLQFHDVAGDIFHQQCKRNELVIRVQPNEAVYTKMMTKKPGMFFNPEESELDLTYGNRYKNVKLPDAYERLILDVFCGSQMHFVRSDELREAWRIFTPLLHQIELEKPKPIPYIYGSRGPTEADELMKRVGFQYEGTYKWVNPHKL

Bcl-2-related protein A1 = biological target: T1, Bcl-2-related protein A1 (Mus musculus, UniProt Q07440); type: functional;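 also: confirmatory dose–response counterscreen on Bfl-1, used to check hits from a UBC13 polyubiquitin inhibitor campaign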
T1 sequence (Q07440 whole entry): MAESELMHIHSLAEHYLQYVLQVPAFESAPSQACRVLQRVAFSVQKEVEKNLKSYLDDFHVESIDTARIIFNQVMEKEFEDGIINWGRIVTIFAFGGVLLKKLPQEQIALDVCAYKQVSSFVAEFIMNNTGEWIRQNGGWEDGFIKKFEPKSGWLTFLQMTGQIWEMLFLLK

[2] = biological target: T2, Ubiquitin-conjugating enzyme E2 N (Homo sapiens, UniProt P61088); type: functional
T2 sequence (P61088 whole entry): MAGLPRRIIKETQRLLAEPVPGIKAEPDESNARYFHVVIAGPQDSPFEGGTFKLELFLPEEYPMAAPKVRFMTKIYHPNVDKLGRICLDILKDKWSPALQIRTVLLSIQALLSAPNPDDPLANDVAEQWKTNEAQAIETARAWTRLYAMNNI

[3] = biological target: T2, Ubiquitin-conjugating enzyme E2 N; type: functional; remark: listed apart in the source
[4] = biological target: DNA dC->dU-editing enzyme APOBEC-3A (Homo sapiens, UniProt P31941); experiment: Dose Response confirmation of small molecule APOBEC3A DNA Deaminase Inhibitors via a fluorescence-based single-stranded DNA deaminase assay. [Related pubchem assays (depositor defined):AID493011, AID493024]; type: functional
DNA dC->dU-editing enzyme APOBEC-3A, sequence (P31941 whole entry): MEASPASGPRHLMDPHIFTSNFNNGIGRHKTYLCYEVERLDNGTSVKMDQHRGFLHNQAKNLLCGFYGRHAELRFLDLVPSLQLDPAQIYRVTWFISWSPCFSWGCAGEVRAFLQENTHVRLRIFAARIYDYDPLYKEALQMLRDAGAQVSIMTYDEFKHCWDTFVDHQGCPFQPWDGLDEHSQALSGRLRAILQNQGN

[5] = biological target: DNA dC->dU-editing enzyme APOBEC-3G (Homo sapiens, UniProt Q9HC16); type: functional;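 also: Dose-response counterscreen measuring inhibition of APOBEC3G DNA deaminase activity, run while confirming APOBEC3A inhibitors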
DNA dC->dU-editing enzyme APOBEC-3G, sequence (Q9HC16 whole entry): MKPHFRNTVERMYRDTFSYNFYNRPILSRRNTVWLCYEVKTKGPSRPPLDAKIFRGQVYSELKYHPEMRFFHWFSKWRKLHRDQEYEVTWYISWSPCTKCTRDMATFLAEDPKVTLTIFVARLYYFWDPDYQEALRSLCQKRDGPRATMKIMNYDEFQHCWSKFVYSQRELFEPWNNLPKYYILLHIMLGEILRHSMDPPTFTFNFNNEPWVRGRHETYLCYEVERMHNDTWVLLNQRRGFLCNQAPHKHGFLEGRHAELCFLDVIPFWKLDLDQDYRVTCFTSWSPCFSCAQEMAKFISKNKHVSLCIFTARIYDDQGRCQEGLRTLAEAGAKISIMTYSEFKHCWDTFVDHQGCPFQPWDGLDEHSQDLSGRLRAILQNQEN

Cytochrome P450 2C9 = Cytochrome P450 2C9 (Homo sapiens, UniProt P11712)
Cytochrome P450 2C9, sequence (P11712 whole entry): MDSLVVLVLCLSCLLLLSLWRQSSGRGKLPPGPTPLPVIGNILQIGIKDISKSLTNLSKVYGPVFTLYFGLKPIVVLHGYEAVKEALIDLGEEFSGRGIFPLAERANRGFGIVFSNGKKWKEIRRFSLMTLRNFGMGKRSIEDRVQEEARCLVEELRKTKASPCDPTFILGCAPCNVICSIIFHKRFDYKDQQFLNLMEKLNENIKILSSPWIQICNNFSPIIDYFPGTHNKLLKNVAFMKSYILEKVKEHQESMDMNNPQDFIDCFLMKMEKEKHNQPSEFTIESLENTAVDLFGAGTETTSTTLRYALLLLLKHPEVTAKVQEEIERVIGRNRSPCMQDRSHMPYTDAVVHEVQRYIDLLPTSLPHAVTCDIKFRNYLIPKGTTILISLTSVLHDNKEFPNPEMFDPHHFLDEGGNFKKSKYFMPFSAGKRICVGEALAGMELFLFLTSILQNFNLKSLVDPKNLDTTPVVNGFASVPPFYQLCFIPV

Cytochrome P450 2D6 [6] = biological target: T3, Cytochrome P450 2D6 (Homo sapiens, UniProt P10635);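 also: CYP2D6 member of a cytochrome P450 panel assay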
T3 sequence (P10635 whole entry): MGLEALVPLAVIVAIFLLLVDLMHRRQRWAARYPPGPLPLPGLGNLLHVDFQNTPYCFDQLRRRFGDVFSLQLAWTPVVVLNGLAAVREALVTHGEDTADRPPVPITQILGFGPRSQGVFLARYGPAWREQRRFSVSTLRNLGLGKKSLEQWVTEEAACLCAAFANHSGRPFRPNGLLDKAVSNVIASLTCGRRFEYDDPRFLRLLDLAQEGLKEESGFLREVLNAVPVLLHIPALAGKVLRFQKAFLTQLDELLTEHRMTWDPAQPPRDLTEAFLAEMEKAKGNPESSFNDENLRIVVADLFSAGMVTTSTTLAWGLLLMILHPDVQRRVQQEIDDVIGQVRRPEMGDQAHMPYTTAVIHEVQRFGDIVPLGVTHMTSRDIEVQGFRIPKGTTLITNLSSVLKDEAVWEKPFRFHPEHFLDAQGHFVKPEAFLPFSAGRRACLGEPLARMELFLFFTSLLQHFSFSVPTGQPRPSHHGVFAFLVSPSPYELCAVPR

[7] = viability of uninfected HEp-2 cells – cell-based, HTS, cytotoxicity control for RSV inhibitor project, dose response (AID 2410); type: functional; conditions: human respiratory syncytial virus
[8] = biological target: T4, Carboxy-terminal domain RNA polymerase II polypeptide A small phosphatase 1 (Homo sapiens, UniProt Q9GZU7); experiment: CTDSP1 inhibitors, concentration-response, biochemical, absorbance readout, ultra-high-throughput screen actives (AID 540297); type: functional
T4 sequence (Q9GZU7 whole entry): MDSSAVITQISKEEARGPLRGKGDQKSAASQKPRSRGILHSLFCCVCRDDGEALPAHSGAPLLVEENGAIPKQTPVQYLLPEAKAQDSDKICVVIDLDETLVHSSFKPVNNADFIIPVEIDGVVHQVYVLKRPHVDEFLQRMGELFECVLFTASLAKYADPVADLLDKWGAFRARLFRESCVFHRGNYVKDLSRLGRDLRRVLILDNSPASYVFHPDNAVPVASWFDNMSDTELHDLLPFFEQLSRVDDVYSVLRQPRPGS

Cytochrome P450 2C19 = Cytochrome P450 2C19 (Homo sapiens, UniProt P33261); experiment: Cytochrome panel assay with activity outcomes. Panel member name: p450-cyp2c19 Compounds with AC50 equal or less than 10 uM are considered active; type: functional
Cytochrome P450 2C19, sequence (P33261 whole entry): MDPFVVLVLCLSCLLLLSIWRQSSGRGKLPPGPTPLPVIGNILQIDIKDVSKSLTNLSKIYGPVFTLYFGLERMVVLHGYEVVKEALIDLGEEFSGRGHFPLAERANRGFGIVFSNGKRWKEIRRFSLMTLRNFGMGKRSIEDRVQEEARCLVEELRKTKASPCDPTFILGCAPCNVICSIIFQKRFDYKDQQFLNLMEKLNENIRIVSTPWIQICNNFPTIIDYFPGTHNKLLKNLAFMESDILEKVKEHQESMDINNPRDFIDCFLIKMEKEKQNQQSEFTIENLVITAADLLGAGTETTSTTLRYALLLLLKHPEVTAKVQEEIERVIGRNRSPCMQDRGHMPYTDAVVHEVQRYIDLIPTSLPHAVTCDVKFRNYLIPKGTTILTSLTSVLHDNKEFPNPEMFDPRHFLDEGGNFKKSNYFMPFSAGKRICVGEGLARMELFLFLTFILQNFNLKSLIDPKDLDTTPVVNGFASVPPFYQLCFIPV

Cytochrome P450 2D6 [9] = biological target: T3, Cytochrome P450 2D6; remark: listed apart in the source

Cytochrome P450 3A4, sequence (P08684 whole entry): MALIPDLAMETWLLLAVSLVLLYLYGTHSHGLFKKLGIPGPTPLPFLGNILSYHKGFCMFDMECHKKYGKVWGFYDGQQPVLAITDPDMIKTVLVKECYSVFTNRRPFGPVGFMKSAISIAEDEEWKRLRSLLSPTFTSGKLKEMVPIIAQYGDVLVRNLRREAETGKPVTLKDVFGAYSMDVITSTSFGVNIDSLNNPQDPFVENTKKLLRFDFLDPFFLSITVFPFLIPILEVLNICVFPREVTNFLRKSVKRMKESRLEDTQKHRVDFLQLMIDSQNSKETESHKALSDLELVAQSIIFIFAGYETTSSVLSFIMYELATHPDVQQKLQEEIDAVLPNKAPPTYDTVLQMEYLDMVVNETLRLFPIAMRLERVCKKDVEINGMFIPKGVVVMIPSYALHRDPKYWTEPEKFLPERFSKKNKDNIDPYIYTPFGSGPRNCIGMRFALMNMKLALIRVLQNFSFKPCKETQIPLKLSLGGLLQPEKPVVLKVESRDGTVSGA

## COC(=O)[C@](C)(N)Cc1ccc(O)cc1
Cytochrome P450 3A4
  AC50: inconclusive

## Cc1ccc(-c2csc(NC(=O)c3ccc(Br)cc3)c2C(=O)O)cc1
[1]
  IC50: > 80 µM (inactive)

## O=C(Nc1ccc(F)c(Cl)c1)C1CCN(c2ncnc3c2nc2n3CCCCC2)CC1
Bcl-2-related protein A1
  IC50: > 20 µM (inactive)
[2]
  IC50: 9.53 µM (active)
[3]
  IC50: 8.53 µM (active)

## CC(=O)Nc1nnc(SCC(=O)NCCOc2ccccc2)s1
[4]
  IC50: 4.13 µM (active)
[5]
  IC50: 5.12 µM (active)

## O=C(CNC(=O)c1ccco1)OCC(=O)c1ccc([N+](=O)[O-])cc1
[1]
  IC50: > 80 µM (inactive)

## COCCNC(=O)COC(=O)/C=C/c1cnc2ccccc2n1
Cytochrome P450 2C9
  AC50: 1.12 µM (inconclusive)
Cytochrome P450 2D6 [6]
  AC50: inconclusive

## CCN1C(NCCCCO)=N[C@@H](c2cccc(F)c2)C(C(=O)OC)=C1C
[4]
  IC50: 3.06 µM (active)
[5]
  IC50: 5.05 µM (active)

## CC(C)c1ccc(/C=C2\SC(=O)N(CC(=O)NC3C=CS(=O)(=O)C3)C2=O)cc1 (configuration not stated)
[7]
  CC50: 18.8 µM (active)
[8]
  IC50: 11.8 µM (active)

## CN(C)S(=O)(=O)c1ccc(NC(=O)Cc2ccc(S(=O)(=O)N3CCOCC3)s2)cc1
[8]
  IC50: 9.34 µM (active)

## COC(=O)c1ccc(NC(=O)N2CCC(O)(c3cccnc3)CC2)cc1
Cytochrome P450 2C19
  AC50: inconclusive
Cytochrome P450 2D6 [9]
  AC50: 15.8 µM (inconclusive)
Cytochrome P450 3A4
  AC50: inconclusive

## c1ccc2c(c1)nnn2CN1CCOCC1
Cytochrome P450 2D6 [6]
  AC50: inconclusive

## O=C1c2cccc3cccc(c23)C(=O)N1CC1CCN(CC(O)COCc2ccc3c(c2)OCO3)CC1 (configuration not stated)
Bcl-2-related protein A1
  IC50: > 20 µM (inactive)
[2]
  IC50: 4.33 µM (active)
[3]
  IC50: 3.25 µM (active)

## CN1CCN(C(=O)C2CCN(c3ncnc4c3nc3n4CCCCC3)CC2)CC1
Bcl-2-related protein A1
  IC50: > 20 µM (inactive)
[2]
  IC50: 6.77 µM (active)
[3]
  IC50: 3.51 µM (active)

## CC(C)CCC[C@@H](C)[C@@H]1CC[C@@H]2[C@H]3CC[C@H]4C[C@@H](N)CC[C@@]4(C)[C@@H]3CC[C@]21C
Cytochrome P450 2C19
  AC50: inconclusive
Cytochrome P450 2D6 [6]
  AC50: inconclusive
